Test results taken from patent publication US10968222B2, “2-azabicyclo hexane JAK inhibitor compound” (THERAVANCE BIOPHARMA R&D IP, LLC, priority 2018, dated 2021).

Legend:
SRC = biological target: T1, SRC (Homo sapiens, UniProt P12931); test: Kinome screen, SRC; assay type: binding; conditions: screened at 1 μM
T1 construct: made in house; host or cells: E. coli BL21-derived host (T7 phage) or HEK-293 cells
Method: (§1) Compounds 1 and C-1 were screened against other kinases to evaluate their selectivity profile.
(§2) Kinase-tagged T7 phage strains were grown in parallel in 24-well blocks in an E. coli host derived from the BL21 strain. E. coli were grown to log-phase and infected with T7 phage from a frozen stock (multiplicity of infection=0.4) and incubated with shaking at 32° C. until lysis (90-150 minutes). The lysates were centrifuged (6,000×g) and filtered (0.2 μm) to remove cell debris. The remaining kinases were produced in HEK-293 cells and subsequently tagged with DNA for qPCR detection.
(§3) Streptavidin-coated magnetic beads were treated with biotinylated small molecule ligands for 30 minutes at room temperature to generate affinity resins for kinase assays. The liganded beads were blocked with excess biotin and washed with blocking buffer (SeaBlock (Pierce), 1% BSA, 0.05% Tween 20, 1 mM DTT) to remove unbound ligand and to reduce non-specific phage binding. Binding reactions were assembled by combining kinases, liganded affinity beads, and test compounds in 1× binding buffer (20% SeaBlock, 0.17×PBS, 0.05% Tween 20, 6 mM DTT). Test compounds were prepared as 40× stocks in 100% DMSO and directly diluted into the assay. All reactions were performed in polypropylene 384-well plates in a final volume of 0.04 ml. […] The kinase concentration in the eluates was measured by qPCR. […]

ALK = biological target: T2, ALK (Homo sapiens, UniProt Q9UM73); test: Kinome screen, ALK; assay type: binding; conditions: screened at 1 μM
T2 construct: made in house; host or cells: E. coli BL21-derived host (T7 phage) or HEK-293 cells
T2 sequence (Q9UM73 19-1620): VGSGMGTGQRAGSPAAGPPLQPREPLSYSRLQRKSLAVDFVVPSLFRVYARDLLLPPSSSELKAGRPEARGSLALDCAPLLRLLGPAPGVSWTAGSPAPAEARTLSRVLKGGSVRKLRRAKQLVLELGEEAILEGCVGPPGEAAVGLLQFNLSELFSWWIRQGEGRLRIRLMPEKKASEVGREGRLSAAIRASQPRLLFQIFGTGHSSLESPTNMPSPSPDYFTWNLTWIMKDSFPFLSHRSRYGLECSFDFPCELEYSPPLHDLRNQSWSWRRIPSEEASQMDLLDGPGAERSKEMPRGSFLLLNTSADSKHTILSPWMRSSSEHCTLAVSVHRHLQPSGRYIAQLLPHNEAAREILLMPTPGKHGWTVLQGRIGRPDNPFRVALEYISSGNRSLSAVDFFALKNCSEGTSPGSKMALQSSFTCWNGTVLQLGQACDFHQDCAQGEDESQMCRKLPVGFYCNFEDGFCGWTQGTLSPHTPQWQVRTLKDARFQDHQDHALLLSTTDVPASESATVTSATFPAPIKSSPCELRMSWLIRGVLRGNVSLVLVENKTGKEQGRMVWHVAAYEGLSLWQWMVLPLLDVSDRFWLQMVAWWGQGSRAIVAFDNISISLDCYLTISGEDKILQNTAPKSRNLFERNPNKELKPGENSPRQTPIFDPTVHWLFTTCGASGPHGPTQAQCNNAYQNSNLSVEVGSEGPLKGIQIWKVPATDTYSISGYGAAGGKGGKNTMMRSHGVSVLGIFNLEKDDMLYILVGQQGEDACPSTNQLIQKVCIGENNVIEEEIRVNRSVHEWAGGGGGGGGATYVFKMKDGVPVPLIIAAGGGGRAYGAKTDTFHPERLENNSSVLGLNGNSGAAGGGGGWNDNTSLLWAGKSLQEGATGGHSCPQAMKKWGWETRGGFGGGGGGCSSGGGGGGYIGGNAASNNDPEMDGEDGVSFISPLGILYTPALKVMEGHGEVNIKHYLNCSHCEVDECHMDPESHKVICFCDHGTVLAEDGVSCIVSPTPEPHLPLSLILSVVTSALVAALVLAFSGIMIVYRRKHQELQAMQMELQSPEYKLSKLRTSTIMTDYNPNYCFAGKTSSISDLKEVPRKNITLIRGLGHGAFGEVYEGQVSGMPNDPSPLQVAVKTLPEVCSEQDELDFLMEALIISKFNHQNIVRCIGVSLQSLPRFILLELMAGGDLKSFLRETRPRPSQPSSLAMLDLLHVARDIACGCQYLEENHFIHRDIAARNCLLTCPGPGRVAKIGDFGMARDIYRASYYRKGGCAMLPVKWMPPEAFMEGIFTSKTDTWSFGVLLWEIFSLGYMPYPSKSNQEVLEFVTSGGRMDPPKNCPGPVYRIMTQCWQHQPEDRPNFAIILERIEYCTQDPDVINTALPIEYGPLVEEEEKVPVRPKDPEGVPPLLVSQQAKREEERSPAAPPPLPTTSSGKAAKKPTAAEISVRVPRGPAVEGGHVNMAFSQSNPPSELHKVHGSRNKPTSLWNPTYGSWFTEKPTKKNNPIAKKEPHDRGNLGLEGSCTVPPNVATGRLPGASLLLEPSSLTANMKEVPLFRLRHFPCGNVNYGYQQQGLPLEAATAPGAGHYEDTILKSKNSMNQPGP
Method: as §1, §2, §3

JAK3 = biological target: T3, JAK3 (Homo sapiens, UniProt P52333); test: Biochemical JAK kinase assay (LanthaScreen), JAK3; conditions: converted from pIC50 by Cheng-Prusoff; 1.6 μM ATP; read-out: JAK 3 pKi (converted)
T3 construct: GST; purchased Life Technologies
T3 sequence (P52333 whole entry): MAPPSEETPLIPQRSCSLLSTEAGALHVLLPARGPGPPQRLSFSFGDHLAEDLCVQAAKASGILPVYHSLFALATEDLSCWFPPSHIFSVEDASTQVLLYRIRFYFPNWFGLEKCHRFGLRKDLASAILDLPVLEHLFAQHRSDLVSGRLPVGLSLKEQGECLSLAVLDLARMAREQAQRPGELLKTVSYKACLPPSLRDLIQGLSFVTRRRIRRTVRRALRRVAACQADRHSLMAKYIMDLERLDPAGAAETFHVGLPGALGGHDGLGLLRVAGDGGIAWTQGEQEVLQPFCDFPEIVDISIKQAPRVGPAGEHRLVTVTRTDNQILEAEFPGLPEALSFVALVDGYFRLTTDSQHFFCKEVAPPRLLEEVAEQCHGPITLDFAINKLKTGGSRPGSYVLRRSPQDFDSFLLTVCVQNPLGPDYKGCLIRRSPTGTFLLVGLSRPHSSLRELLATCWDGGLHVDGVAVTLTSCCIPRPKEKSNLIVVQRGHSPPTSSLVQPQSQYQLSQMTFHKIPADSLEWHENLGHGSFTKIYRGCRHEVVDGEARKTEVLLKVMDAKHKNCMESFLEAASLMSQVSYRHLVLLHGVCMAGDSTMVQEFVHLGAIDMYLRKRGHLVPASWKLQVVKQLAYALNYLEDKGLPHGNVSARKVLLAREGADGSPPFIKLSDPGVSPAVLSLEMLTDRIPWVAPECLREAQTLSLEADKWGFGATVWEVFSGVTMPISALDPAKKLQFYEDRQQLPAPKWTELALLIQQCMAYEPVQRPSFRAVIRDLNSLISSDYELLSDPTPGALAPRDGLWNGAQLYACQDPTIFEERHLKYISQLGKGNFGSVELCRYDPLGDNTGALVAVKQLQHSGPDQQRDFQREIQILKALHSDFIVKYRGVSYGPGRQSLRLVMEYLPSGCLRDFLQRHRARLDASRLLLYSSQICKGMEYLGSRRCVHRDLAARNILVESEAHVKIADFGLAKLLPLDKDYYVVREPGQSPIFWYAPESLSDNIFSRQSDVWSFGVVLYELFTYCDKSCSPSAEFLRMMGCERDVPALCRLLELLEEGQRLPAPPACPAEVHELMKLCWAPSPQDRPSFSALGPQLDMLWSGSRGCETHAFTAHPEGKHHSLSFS
Method: (§4) A panel of four LanthaScreen JAK biochemical assays (JAK1, 2, 3 and Tyk2) were carried in a common kinase reaction buffer (50 mM HEPES, pH 7.5, 0.01% Brij-35, 10 mM MgCl2, and 1 mM EGTA). Recombinant GST-tagged JAK enzymes and a GFP-tagged STAT1 peptide substrate were obtained from Life Technologies.
(§5) Serially diluted compound was pre-incubated with each of the four JAK enzymes and the substrate in white 384-well microplates (Corning) at ambient temperature for 1 h. ATP was subsequently added to initiate the kinase reactions in 10 μL total volume, with 1% DMSO. […] The plates were allowed to incubate at ambient temperature for 1 h before being read on the EnVision reader (Perkin Elmer). Emission ratio signals (520 nm/495 nm) were recorded and utilized to calculate the percent inhibition values based on DMSO and background controls.
(§6) For dose-response analysis, percent inhibition data were plotted vs. compound concentrations, and IC50 values were determined from a 4-parameter robust fit model with the Prism software (GraphPad Software). Results were expressed as pIC50 (negative logarithm of IC50) and subsequently converted to pKi (negative logarithm of dissociation constant, Ki) using the Cheng-Prusoff equation.

CSNK1D = biological target: T4, CSNK1D (Homo sapiens, UniProt P48730); test: Kinome screen, CSNK1D; assay type: binding; conditions: screened at 1 μM
T4 construct: made in house; host or cells: E. coli BL21-derived host (T7 phage) or HEK-293 cells
T4 sequence (P48730 whole entry): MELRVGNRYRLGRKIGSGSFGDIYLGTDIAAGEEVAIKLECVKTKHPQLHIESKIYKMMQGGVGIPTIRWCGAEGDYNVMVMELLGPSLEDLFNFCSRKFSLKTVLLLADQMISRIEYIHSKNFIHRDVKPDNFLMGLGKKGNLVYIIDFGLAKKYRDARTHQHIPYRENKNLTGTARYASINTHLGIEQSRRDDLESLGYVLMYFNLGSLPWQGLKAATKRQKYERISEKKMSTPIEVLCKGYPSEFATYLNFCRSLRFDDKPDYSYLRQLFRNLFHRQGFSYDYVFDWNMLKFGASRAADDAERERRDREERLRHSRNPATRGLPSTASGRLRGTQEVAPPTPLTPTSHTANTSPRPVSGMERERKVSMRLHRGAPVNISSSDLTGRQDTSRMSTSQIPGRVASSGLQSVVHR
Method: as §1, §2, §3

GSK3B = biological target: T5, GSK3B (Homo sapiens, UniProt P49841); test: Kinome screen, GSK3B; assay type: binding; conditions: screened at 1 μM
T5 construct: made in house; host or cells: E. coli BL21-derived host (T7 phage) or HEK-293 cells
T5 sequence (P49841 whole entry): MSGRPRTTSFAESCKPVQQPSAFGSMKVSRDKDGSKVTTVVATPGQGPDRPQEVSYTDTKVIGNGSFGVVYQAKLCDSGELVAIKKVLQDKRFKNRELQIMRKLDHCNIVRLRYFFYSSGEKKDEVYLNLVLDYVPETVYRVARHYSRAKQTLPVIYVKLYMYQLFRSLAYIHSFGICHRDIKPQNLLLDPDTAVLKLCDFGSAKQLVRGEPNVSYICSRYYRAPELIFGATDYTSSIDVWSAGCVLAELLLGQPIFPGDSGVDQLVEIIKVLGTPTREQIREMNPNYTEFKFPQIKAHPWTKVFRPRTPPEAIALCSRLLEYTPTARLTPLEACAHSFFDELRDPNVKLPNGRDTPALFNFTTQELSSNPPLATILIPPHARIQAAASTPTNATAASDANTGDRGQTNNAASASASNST
Method: as §1, §2, §3

[1] = Lung and plasma pharmacokinetics in mice; assay type: in vivo, mouse; conditions: BALB/c mice
Method: Plasma and lung concentrations of compound 1 and ratios thereof were determined in the following manner. BALB/c mice from Charles River Laboratories were used in the assay. Compound 1 was formulated in 20% propylene glycol in citrate buffer (pH 4) at a concentration of 0.324 mg/mL as a solution. 50 μL of the solution formulation was introduced into the trachea of a mouse by oral aspiration. At various time points (0.167, 2, 6 hr) post dosing, blood samples were removed via cardiac puncture and intact lungs were excised from the mice. Blood samples were centrifuged (Eppendorf centrifuge, 5804R) for 4 minutes at approximately 12,000 rpm at 4° C. to collect plasma. Lungs were padded dry, weighed, and homogenized in 0.6 mL sterile water. Plasma and lung concentrations of compound 1 were determined by LC-MS analysis against analytical standards constructed into a standard curve in the test matrix. […] The lung-to-plasma ratio was determined as the ratio of the lung AUC in μg hr/g to the plasma AUC in μg hr/mL (where AUC is conventionally defined as the area under the curve of test compound concentration vs. time).

PLK4 = biological target: T6, PLK4 (Homo sapiens, UniProt O00444); test: Kinome screen, PLK4; assay type: binding; conditions: screened at 1 μM
T6 construct: made in house; host or cells: E. coli BL21-derived host (T7 phage) or HEK-293 cells
Method: as §1, §2, §3

Tyk2 = biological target: T7, Tyk2 (Homo sapiens, UniProt P29597); test: Biochemical JAK kinase assay (LanthaScreen), Tyk2; conditions: converted from pIC50 by Cheng-Prusoff; 10 μM ATP; read-out: Tyk 2 pKi (converted)
T7 construct: GST; purchased Life Technologies
T7 sequence (P29597 whole entry): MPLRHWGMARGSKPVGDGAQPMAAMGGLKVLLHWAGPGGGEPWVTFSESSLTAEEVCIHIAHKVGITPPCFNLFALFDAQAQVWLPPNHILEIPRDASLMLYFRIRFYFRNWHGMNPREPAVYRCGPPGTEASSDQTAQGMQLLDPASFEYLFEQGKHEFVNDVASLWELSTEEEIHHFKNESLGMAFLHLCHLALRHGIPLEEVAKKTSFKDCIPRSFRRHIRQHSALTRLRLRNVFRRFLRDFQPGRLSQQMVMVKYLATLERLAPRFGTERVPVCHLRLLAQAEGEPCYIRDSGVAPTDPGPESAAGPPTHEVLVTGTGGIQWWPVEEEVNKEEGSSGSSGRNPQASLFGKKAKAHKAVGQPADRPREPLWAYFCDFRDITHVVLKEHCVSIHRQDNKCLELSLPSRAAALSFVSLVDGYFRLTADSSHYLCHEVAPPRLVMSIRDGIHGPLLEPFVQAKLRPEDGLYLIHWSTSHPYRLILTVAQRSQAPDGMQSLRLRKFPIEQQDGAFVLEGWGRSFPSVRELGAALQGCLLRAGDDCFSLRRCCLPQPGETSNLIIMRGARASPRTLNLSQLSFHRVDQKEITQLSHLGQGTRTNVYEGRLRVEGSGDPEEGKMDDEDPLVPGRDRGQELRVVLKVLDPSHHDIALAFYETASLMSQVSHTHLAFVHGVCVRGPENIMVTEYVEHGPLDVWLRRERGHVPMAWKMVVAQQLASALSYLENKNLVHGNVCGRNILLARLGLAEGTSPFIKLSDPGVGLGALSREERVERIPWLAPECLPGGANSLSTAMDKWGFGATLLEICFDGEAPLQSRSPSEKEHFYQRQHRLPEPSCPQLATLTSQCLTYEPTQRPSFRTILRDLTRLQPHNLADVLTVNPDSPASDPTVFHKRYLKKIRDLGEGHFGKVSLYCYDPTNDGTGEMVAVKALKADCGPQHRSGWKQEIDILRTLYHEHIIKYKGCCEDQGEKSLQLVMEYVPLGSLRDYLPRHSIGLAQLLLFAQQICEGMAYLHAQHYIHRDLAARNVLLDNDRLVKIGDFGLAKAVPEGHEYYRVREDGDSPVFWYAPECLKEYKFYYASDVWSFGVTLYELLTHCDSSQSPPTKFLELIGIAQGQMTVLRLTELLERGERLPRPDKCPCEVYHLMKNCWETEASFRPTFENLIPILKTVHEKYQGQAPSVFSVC
Method: as §4, §5, §6

[2] = test system: IL-6 induced pSTAT3 in rat retina/choroid; test: Pharmacodynamic assay: inhibition of IL6-induced pSTAT3 in rats; assay type: in vivo; conditions: rat retina/choroid homogenates; 45 μg intravitreal dose; one hour after injection
Method: The ability of a single intravitreal administration of test compound to inhibit IL-6 induced pSTAT3 was measured in rat retina/choroid homogenates.
A solution formulation was prepared by dissolving compound 1 in 1% HPMC E5+15% HPβCD, pH7 to attain a target concentration of […]. Female Lewis rats were intravitreally (IVT) dosed (5 μL per eye) with either the vehicle, vehicle plus rat IL-6 (Peprotech; 0.5 μg), or a combination of IL-6 plus compound (0.5 μg IL-6 and 45 μg compound 1). Ocular tissues were dissected one hour after the IVT injection. The retina/choroid tissues were homogenized and pSTAT3 levels were measured using an AlphaLisa (PerkinElmer). The percent inhibition of IL-6-induced pSTAT3 was calculated in comparison to the vehicle and IL-6 groups.

CDK7 = biological target: T8, CDK7 (Homo sapiens, UniProt P50613); test: Kinome screen, CDK7; assay type: binding; conditions: screened at 1 μM
T8 construct: made in house; host or cells: E. coli BL21-derived host (T7 phage) or HEK-293 cells
T8 sequence (P50613 whole entry): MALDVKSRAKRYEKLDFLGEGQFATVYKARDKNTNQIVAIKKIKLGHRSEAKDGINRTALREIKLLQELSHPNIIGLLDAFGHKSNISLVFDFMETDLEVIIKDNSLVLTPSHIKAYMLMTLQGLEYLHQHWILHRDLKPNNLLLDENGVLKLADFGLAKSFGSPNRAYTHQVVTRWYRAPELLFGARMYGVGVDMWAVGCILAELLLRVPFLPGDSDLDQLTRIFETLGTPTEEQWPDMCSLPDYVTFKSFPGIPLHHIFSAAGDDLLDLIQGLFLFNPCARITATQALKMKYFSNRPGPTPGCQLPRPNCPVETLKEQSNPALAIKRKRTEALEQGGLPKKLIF
Method: as §1, §2, §3

PKAC-ALPHA = biological target: T9, PKAC-ALPHA (Homo sapiens, UniProt P17612); test: Kinome screen, PKAC-ALPHA; assay type: binding; conditions: screened at 1 μM
T9 construct: made in house; host or cells: E. coli BL21-derived host (T7 phage) or HEK-293 cells
Method: as §1, §2, §3

SMILES: CCc1cc(O)c(F)cc1-c1cc(F)c2c(-c3nc4c([nH]3)CCN(C(=O)[C@]35C[C@H]3CCN5)C4)n[nH]c2c1 [Compound 1, (1S,5R)-2-azabicyclo[3.1.0]hexan-1-yl(2-(6-(2-ethyl-5-fluoro-4-hydroxyphenyl)-4-fluoro-1H-indazol-3-yl)-6,7-dihydro-3H-imidazo[4,5-c]pyridin-5(4H)-yl)methanone]
- inhibition at 1 µM (SRC): 65%
- inhibition at 1 µM (ALK): 79%
- Ki (JAK3): 0.251 nM
- inhibition at 1 µM (CSNK1D): 25%
- inhibition at 1 µM (GSK3B): 32%
- lung AUC (0-6 hr) ([1]; oral aspiration of 50 μL of 0.324 mg/mL solution): 43.5 µg·h/g
- Kp ([1]; mouse, 16.2 µg/mouse, oral aspiration, lung AUC in μg hr/g to plasma AUC in μg hr/mL, read-out: lung-to-plasma AUC ratio): 59.6
- inhibition at 1 µM (PLK4): 39%
- Ki (Tyk2): 2.51 nM
- inhibition of IL-6-induced pSTAT3 [2]: 84%
- inhibition at 1 µM (CDK7): 82%
- inhibition at 1 µM (PKAC-ALPHA): 22%
